Values joined by “and” are separate entries in the source; they are usually repeats but may differ in a detail not shown here. Equal entries are not always repeated.
Experiments:
HIV = assay: microbe, parasite or virus in culture; type: cell-based; conditions: in vitro acute model
HIV virus, ROJO in PBMC = assay: Reverse transcriptase activity against ROJO in PBMC; type: cell-based; parameters: Reverse Transcriptase Activity, Sample 1-3 / Reverse Transcriptase Activity, Mean: unit not given here; conditions: for Reverse Transcriptase Activity, Sample 1-3: individual samples
[1] = test system: Chronic HIV-1 infected cells U1; assay: Chronic HIV study, HIV replication in monocytes (U1 cells); type: cell-based
Procedure: (§1) Chronic HIV-1 infected cells U1 were derived from an acute HIV-1 infection of the promonocytic cell line, U937. The chronic HIV-1 infected cells, ACH-2 were derived from an acute HIV-1 infection of the T cell line, A3.01.
(§2) These cells were cultured in medium and the phorbol ester, PMA. PMA causes the cells (both U1 and ACH-2) to be activated and not divide but it also causes the U-1 cells to differentiate. […] Cell viability was measured when these cell lines were treated with the test compound.
(§3) Both cell lines constituitively produce a small amount of HIV-1. ACH-2 cell lines tend to produce more HIV-1 than U1 cells as shown by p-24 ELISA. When either cell line is cultured in the presence of PMA there is an increase in the quantity of HIV-1 produced as measured by the p-24 antigen ELISA.
(§4) In addition, the number of […] positive HIV mRNA expressing cells per microscopic field is measured. Comparisons can be made from these numbers since the same number of cells were adhered to the glass slides for each drug concentration (10×10^6 cells/ml).

[2] = test system: chronic HIV-1 infected cells, ACH-2; assay: Chronic HIV study, T-cell HIV replication (ACH-2 cells); type: cell-based; conditions: increase, not suppression
Procedure: as §1, §2, §3, §4

PBMC = assay: Toxicity values, XTT-based evaluation (cell titer O.D.), ROJO in PBMC; conditions: for Toxicity Values (Cell titer), Sample 1-3: individual samples

SMILES: c1ccc2[nH]c(-c3cscn3)nc2c1 [2-(4-thiazolyl)-1H-benzimidazole]
- inhibition at 60 µg/mL (HIV; Human immunodeficiency virus 1, at 60 μg/ml, read-out: inhibited viral replication): 98%

SMILES: Cc1cn([C@H]2C[C@H](N=[N+]=[N-])[C@@H](CO)O2)c(=O)[nH]c1=O [AZT, reference compound]
- Reverse Transcriptase Activity, % virus control (HIV virus, ROJO in PBMC; 0.0004 μg/ml): 101.5%
- Reverse Transcriptase Activity, Sample 1-3 (HIV virus, ROJO in PBMC; 0.0004 μg/ml): 1.043 and 0.966 and 1.143
- Reverse Transcriptase Activity, % virus control (HIV virus, ROJO in PBMC; 0.0013 μg/ml): 101.4%
- Reverse Transcriptase Activity, % virus control (HIV virus, ROJO in PBMC; 0.004 μg/ml): 98.5%
- Reverse Transcriptase Activity, Mean (HIV virus, ROJO in PBMC; 0.004 μg/ml): 1.019
- Reverse Transcriptase Activity, Sample 1-3 (HIV virus, ROJO in PBMC; 0.004 μg/ml): 1.005 and 1.004 and 1.048
- Reverse Transcriptase Activity, % virus control (HIV virus, ROJO in PBMC; 0.013 μg/ml): 101.2%
- Reverse Transcriptase Activity, Sample 1-3 (HIV virus, ROJO in PBMC; 0.013 μg/ml): 1.024 and 1.061 and 1.056
- Reverse Transcriptase Activity, % virus control (HIV virus, ROJO in PBMC; 0.04 μg/ml): 0.7%
- Reverse Transcriptase Activity, Mean (HIV virus, ROJO in PBMC; 0.04 μg/ml): 168
- Reverse Transcriptase Activity, Sample 1-3 (HIV virus, ROJO in PBMC; 0.04 μg/ml): 176 and 108 and 220
- Reverse Transcriptase Activity, % virus control (HIV virus, ROJO in PBMC; 0.13 μg/ml): 0.5%
- Reverse Transcriptase Activity, Mean (HIV virus, ROJO in PBMC; 0.13 μg/ml): 110.7
- Reverse Transcriptase Activity, Sample 1-3 (HIV virus, ROJO in PBMC; 0.13 μg/ml): 108 and 168 and 56
- Reverse Transcriptase Activity, % virus control (HIV virus, ROJO in PBMC; 0.4 μg/ml): 0.7%
- Reverse Transcriptase Activity, Mean (HIV virus, ROJO in PBMC; 0.4 μg/ml): 172
- Reverse Transcriptase Activity, Sample 1-3 (HIV virus, ROJO in PBMC; 0.4 μg/ml): 340 and 80 and 96
- Reverse Transcriptase Activity, % virus control (HIV virus, ROJO in PBMC; 1.3 μg/ml): .04%
- Reverse Transcriptase Activity, Mean (HIV virus, ROJO in PBMC; 1.3 μg/ml): 93.3
- Reverse Transcriptase Activity, Sample 1-3 (HIV virus, ROJO in PBMC; 1.3 μg/ml): 68 and 120 and 92
- Reverse Transcriptase Activity, % virus control (HIV virus, ROJO in PBMC; 4 μg/ml): 0.4%
- Reverse Transcriptase Activity, Mean (HIV virus, ROJO in PBMC; 4 μg/ml): 98.7
- Reverse Transcriptase Activity, Sample 1-3 (HIV virus, ROJO in PBMC; 4 μg/ml): 108 and 104 and 84
- inhibited viral replication (HIV; at 1 μg/ml): 98%

SMILES: COC(=O)Nc1nc2ccccc2[nH]1 [Carbendazim, 2-(methoxycarbonylamino)benzimidazole]
- Reverse Transcriptase Activity, % virus control (HIV virus, ROJO in PBMC; 0.01 μg/ml): 110.4%
- Reverse Transcriptase Activity, Mean (HIV virus, ROJO in PBMC; 0.01 μg/ml): 26107
- Reverse Transcriptase Activity, Sample 1-3 (HIV virus, ROJO in PBMC; 0.01 μg/ml): 24174 and 32124 and 22024
- Reverse Transcriptase Activity, % virus control (HIV virus, ROJO in PBMC; 0.032 μg/ml): 96.6%
- Reverse Transcriptase Activity, Mean (HIV virus, ROJO in PBMC; 0.032 μg/ml): 22851
- Reverse Transcriptase Activity, Sample 1-3 (HIV virus, ROJO in PBMC; 0.032 μg/ml): 23225 and 17108 and 19000
- Reverse Transcriptase Activity, % virus control (HIV virus, ROJO in PBMC; 0.1 μg/ml): 74.1%
- Reverse Transcriptase Activity, Mean (HIV virus, ROJO in PBMC; 0.1 μg/ml): 17513
- Reverse Transcriptase Activity, Sample 1-3 (HIV virus, ROJO in PBMC; 0.1 μg/ml): 1394.0 and 16747 and 12569
- Reverse Transcriptase Activity, % virus control (HIV virus, ROJO in PBMC; 0.32 μg/ml): 47.1%
- Reverse Transcriptase Activity, Mean (HIV virus, ROJO in PBMC; 0.32 μg/ml): 11143
- Reverse Transcriptase Activity, Sample 1-3 (HIV virus, ROJO in PBMC; 0.32 μg/ml): 200 and 8787 and 11249
- Reverse Transcriptase Activity, % virus control (HIV virus, ROJO in PBMC; 1 μg/ml): 3.7%
- Reverse Transcriptase Activity, Mean (HIV virus, ROJO in PBMC; 1 μg/ml): 885.3
- Reverse Transcriptase Activity, Sample 1-3 (HIV virus, ROJO in PBMC; 1 μg/ml): 1394 and 685.0 and 577.0
- Reverse Transcriptase Activity, % virus control (HIV virus, ROJO in PBMC; 3.2 μg/ml): 0.6%
- Reverse Transcriptase Activity, Mean (HIV virus, ROJO in PBMC; 3.2 μg/ml): 138.7
- Reverse Transcriptase Activity, Sample 1-3 (HIV virus, ROJO in PBMC; 3.2 μg/ml): 200 and 100 and 116
- Reverse Transcriptase Activity, % virus control (HIV virus, ROJO in PBMC; 10 μg/ml): 0.6%
- Reverse Transcriptase Activity, Mean (HIV virus, ROJO in PBMC; 10 μg/ml): 153.3
- Reverse Transcriptase Activity, Sample 1-3 (HIV virus, ROJO in PBMC; 10 μg/ml): 136 and 216 and 108
- Reverse Transcriptase Activity, % virus control (HIV virus, ROJO in PBMC; 32 μg/ml): 0.6%
- Reverse Transcriptase Activity, Mean (HIV virus, ROJO in PBMC; 32 μg/ml): 130.7
- Reverse Transcriptase Activity, Sample 1-3 (HIV virus, ROJO in PBMC; 32 μg/ml): 124 and 180 and 88.0
- Reverse Transcriptase Activity, % virus control (HIV virus, ROJO in PBMC; 100 μg/ml): 0.5%
- Reverse Transcriptase Activity, Mean (HIV virus, ROJO in PBMC; 100 μg/ml): 122.7
- Reverse Transcriptase Activity, Sample 1-3 (HIV virus, ROJO in PBMC; 100 μg/ml): 132 and 84.0 and 152.0
- suppressed replication in the HIV monocytes [1]: 9%
- T-cell HIV replication was increased [2]: 44%
- inhibition at 4 µg/mL (HIV; Human immunodeficiency virus 1, at 4 μg/ml, read-out: inhibited viral replication): 100%
- Toxicity Values (Cell titer), Mean (PBMC; 0.01 μg/ml): 1.138 O.D. @ 490/650 nm
- Toxicity Values, % cell control (PBMC; 0.01 μg/ml): 109.9%
- Toxicity Values (Cell titer), Sample 1-3 (PBMC; 0.01 μg/ml): 1.115 O.D. @ 490/650 nm and 1.180 O.D. @ 490/650 nm and 1.118 O.D. @ 490/650 nm
- Toxicity Values (Cell titer), Mean (PBMC; 0.032 μg/ml): 1.182 O.D. @ 490/650 nm
- Toxicity Values, % cell control (PBMC; 0.032 μg/ml): 114.2%
- Toxicity Values (Cell titer), Sample 1-3 (PBMC; 0.032 μg/ml): 1.143 O.D. @ 490/650 nm and 1.198 O.D. @ 490/650 nm and 1.204 O.D. @ 490/650 nm
- Toxicity Values (Cell titer), Mean (PBMC; 0.1 μg/ml): 1.157 O.D. @ 490/650 nm
- Toxicity Values, % cell control (PBMC; 0.1 μg/ml): 111.8%
- Toxicity Values (Cell titer), Sample 1-3 (PBMC; 0.1 μg/ml): 1.145 O.D. @ 490/650 nm and 1.080 O.D. @ 490/650 nm and 1.246 O.D. @ 490/650 nm
- Toxicity Values (Cell titer), Mean (PBMC; 0.32 μg/ml): 1.049 O.D. @ 490/650 nm
- Toxicity Values, % cell control (PBMC; 0.32 μg/ml): 101.4%
- Toxicity Values (Cell titer), Sample 1-3 (PBMC; 0.32 μg/ml): 1.031 O.D. @ 490/650 nm and 1.050 O.D. @ 490/650 nm and 1.067 O.D. @ 490/650 nm
- Toxicity Values (Cell titer), Mean (PBMC; 1 μg/ml): 1.004 O.D. @ 490/650 nm
- Toxicity Values, % cell control (PBMC; 1 μg/ml): 97.0%
- Toxicity Values (Cell titer), Sample 1-3 (PBMC; 1 μg/ml): 1.019 O.D. @ 490/650 nm and 1.003 O.D. @ 490/650 nm and 0.991 O.D. @ 490/650 nm
- Toxicity Values (Cell titer), Mean (PBMC; 3.2 μg/ml): 0.992 O.D. @ 490/650 nm
- Toxicity Values, % cell control (PBMC; 3.2 μg/ml): 95.8%
- Toxicity Values (Cell titer), Sample 1-3 (PBMC; 3.2 μg/ml): 1.013 O.D. @ 490/650 nm and 1.003 O.D. @ 490/650 nm and 0.959 O.D. @ 490/650 nm
- Toxicity Values (Cell titer), Mean (PBMC; 10 μg/ml): 0.944 O.D. @ 490/650 nm
- Toxicity Values, % cell control (PBMC; 10 μg/ml): 91.2%
- Toxicity Values (Cell titer), Sample 1-3 (PBMC; 10 μg/ml): 1.001 O.D. @ 490/650 nm and 0.858 O.D. @ 490/650 nm and 0.973 O.D. @ 490/650 nm
- Toxicity Values (Cell titer), Mean (PBMC; 32 μg/ml): 0.845 O.D. @ 490/650 nm
- Toxicity Values, % cell control (PBMC; 32 μg/ml): 81.6%
- Toxicity Values (Cell titer), Sample 1-3 (PBMC; 32 μg/ml): 0.864 O.D. @ 490/650 nm and 0.835 O.D. @ 490/650 nm and 0.836 O.D. @ 490/650 nm
- Toxicity Values (Cell titer), Mean (PBMC; 100 μg/ml): 0.807 O.D. @ 490/650 nm
- Toxicity Values, % cell control (PBMC; 100 μg/ml): 77.9%
- Toxicity Values (Cell titer), Sample 1-3 (PBMC; 100 μg/ml): 0.839 O.D. @ 490/650 nm and 0.782 O.D. @ 490/650 nm and 0.799 O.D. @ 490/650 nm
